# According to patent US8338597B2, “Pyridones useful as inhibitors of kinases” (Vertex Pharmaceuticals Incorporated, priority 2004, dated 2012):
# Legend:
# [1] = molecular target: T1, Itk (Homo sapiens, UniProt Q08881); assay: ITK inhibition assay, radioactive-phosphate incorporation; format: biochemical; conditions: [γ-33P]ATP, SAM68 peptide, 25° C.
# T1 sequence (Q08881 1-620): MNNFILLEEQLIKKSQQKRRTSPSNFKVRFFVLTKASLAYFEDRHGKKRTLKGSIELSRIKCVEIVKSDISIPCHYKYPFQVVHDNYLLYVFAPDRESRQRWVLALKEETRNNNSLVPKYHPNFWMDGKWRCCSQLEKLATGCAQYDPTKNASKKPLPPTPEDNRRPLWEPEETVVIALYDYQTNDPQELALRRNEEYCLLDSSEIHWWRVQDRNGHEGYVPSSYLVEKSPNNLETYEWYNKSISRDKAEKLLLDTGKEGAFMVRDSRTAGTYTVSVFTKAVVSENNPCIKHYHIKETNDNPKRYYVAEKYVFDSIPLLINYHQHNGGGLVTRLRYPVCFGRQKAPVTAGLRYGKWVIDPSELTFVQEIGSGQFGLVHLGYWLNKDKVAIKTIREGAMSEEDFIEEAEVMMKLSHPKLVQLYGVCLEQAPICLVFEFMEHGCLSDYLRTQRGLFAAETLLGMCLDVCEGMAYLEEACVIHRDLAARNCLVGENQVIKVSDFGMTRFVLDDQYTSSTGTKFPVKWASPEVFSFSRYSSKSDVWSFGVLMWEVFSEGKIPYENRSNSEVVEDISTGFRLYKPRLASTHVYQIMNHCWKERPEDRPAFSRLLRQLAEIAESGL
# Method: Assays were carried out in a mixture of 20 mM MOPS (pH 7.0), 10 mM MgCl2, 0.1% BSA and 1 mM DTT. […] Assays were carried out at 25° C. in the presence of 50 nM Itk. An assay stock buffer solution was prepared containing all of the reagents listed above, with the exception of ATP and the test compound of interest.
# The reaction was stopped after 10 minutes by the addition of […] 0.2M phosphoric acid+0.01% TWEEN 20. A multiscreen phosphocellulose filter 96-well plate (Millipore, Cat no. MAPHN0B50) was pretreated with 100 μL 0.2M phosphoric acid+0.01% TWEEN 20 prior to the addition of […] of the stopped assay mixture. The plate was washed with 4×200 μL 0.2M phosphoric acid+0.01% TWEEN 20.
# Ki(app) data were calculated from non-linear regression analysis of the initial rate data using the Prism software package (GraphPad Prism version 3.0cx for Macintosh, GraphPad Software, San Diego Calif., USA).
# [2] = molecular target: T2, Rlk (Homo sapiens, UniProt P42681); assay: RLK inhibition assay, standard coupled enzyme assay; format: biochemical; conditions: 100 μM ATP, 40 nM Rlk, 30° C.
# T2 sequence (P42681 1-527): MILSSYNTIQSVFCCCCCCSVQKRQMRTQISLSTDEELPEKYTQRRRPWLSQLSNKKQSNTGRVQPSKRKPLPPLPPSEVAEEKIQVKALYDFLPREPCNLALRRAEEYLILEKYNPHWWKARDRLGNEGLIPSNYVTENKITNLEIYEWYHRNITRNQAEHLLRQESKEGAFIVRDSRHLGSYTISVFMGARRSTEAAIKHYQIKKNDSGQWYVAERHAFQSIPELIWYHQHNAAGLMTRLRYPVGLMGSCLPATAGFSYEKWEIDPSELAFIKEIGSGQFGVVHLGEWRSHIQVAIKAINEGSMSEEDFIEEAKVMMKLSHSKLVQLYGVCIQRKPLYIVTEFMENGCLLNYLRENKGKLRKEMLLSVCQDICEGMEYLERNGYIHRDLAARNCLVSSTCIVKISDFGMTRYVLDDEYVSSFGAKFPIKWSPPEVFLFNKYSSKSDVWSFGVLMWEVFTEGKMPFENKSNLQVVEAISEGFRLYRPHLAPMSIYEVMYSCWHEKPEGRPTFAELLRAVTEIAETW
# Method: Compounds were screened for their ability to inhibit Rlk using a standard coupled enzyme assay (Fox et al., Protein Sci., (1998) 7, 2249). Assays were carried out in a mixture of 20 mM MOPS (pH 7.0), 10 mM MgCl2, 0.1% BSA and 1 mM DTT. Final substrate concentrations in the assay were 100 μM ATP (Sigma Chemicals) and 10 μM peptide (Poly Glu:Tyr 4:1). Assays were carried out at 30° C. and in the presence of 40 nM Rlk. Final concentrations of the components of the coupled enzyme system were 2.5 mM phosphoenolpyruvate, 300 μM NADH, 30 μg/ml pyruvate kinase and 10 μg/ml lactate dehydrogenase.
# An assay stock buffer solution was prepared containing all of the reagents listed above, with the exception of ATP and the test compound of interest. 60 μl of the stock solution was placed in a 96 well plate followed by addition of […] of DMSO stock containing serial dilutions of the test compound (typically starting from a final concentration of 7.5 μM). The plate was preincubated for 10 minutes at 30° C. and the reaction initiated by addition of 5 μl of ATP. Initial reaction rates were determined with a Molecular Devices SpectraMax Plus plate reader over a 10 minute time course. IC50 and Ki data were calculated from non-linear regression analysis using the Prism software package (GraphPad Prism version 3.0cx for Macintosh, GraphPad Software, San Diego Calif., USA).
Ki [1],Ki [2],Compound
< 100 nM,> 1000 nM,O=C(Nc1cc(-c2ccncc2)c[nH]c1=O)c1ccc(N2CCNCC2)cc1 [Compound I-71]
< 100 nM,> 1000 nM,CCN(CC)CCN1CCN(c2ccc(C(=O)Nc3cc(-c4ccncc4)c[nH]c3=O)cc2)CC1 [Compound I-74]
< 100 nM,< 1000 nM,CNc1nccc(-c2c[nH]c(=O)c(NC(=O)c3ccc(C(C)(C)C)cc3)c2)n1 [II-14]
100 to 1000 nM,> 1000 nM,Cn1cc(-c2c[nH]c(=O)c(NC(=O)c3ccc(C(C)(C)C)cc3)c2)cn1 [II-15]
< 100 nM,> 1000 nM,CNc1cc(-c2c[nH]c(=O)c(NC(=O)c3ccc(C(C)(C)C)cc3)c2)ncn1 [II-17]
< 100 nM,< 1000 nM,CC(C)(C)c1ccc(C(=O)Nc2cc(-c3ccnc(NC4CCNCC4)n3)c[nH]c2=O)cc1 [II-28]
< 100 nM,< 1000 nM,CC(C)(C)c1ccc(C(=O)Nc2cc(-c3ccnc(NC4CCCNC4)n3)c[nH]c2=O)cc1 (centres unmarked) [II-29]
< 100 nM,< 1000 nM,CC(C)(C)c1ccc(C(=O)Nc2cc(-c3ccnc(NC4CCNC4)n3)c[nH]c2=O)cc1 (centres unmarked) [II-30]
< 100 nM,< 1000 nM,CC(C)(C)c1ccc(C(=O)Nc2cc(-c3ccnc(N[C@@H]4CCNC4)n3)c[nH]c2=O)cc1 [II-31]
< 100 nM,< 1000 nM,CNCCNc1cccc(-c2c[nH]c(=O)c(NC(=O)c3ccc(C(C)(C)C)cc3)c2)n1 [II-35]
100 to 1000 nM,> 1000 nM,CNCCNc1cc(-c2c[nH]c(=O)c(NC(=O)c3ccc(C(C)(C)C)cc3)c2)ncn1 [II-38]
< 100 nM,< 1000 nM,"CNc1nccc(-c2c[nH]c(=O)c(NC(=O)c3ccc(N4CCCCC4)cc3)c2)n1 [II-40, N-(1,2-dihydro-5-(2-(methylamino)pyrimidin-4-yl)-2-oxopyridin-3-yl)-4-(piperidin-1-yl)benzamide]"
–,> 1000 nM,CNc1cc(-c2c[nH]c(=O)c(NC(=O)c3ccc(N4CCCCC4)cc3)c2)ncn1 [II-46]
–,> 1000 nM,CNc1cccc(-c2c[nH]c(=O)c(NC(=O)c3ccc(N4CCCCC4)cc3)c2)n1 [II-47]
< 100 nM,> 1000 nM,CNCCN(C)c1nccc(-c2c[nH]c(=O)c(NC(=O)c3ccc(N4CCCCC4)cc3)c2)n1 [II-65]
100 to 1000 nM,> 1000 nM,CNCCNc1cccc(-c2c[nH]c(=O)c(NC(=O)c3ccc(N4CCCCC4)cc3)c2)c1 [II-75]
< 100 nM,< 1000 nM,CNc1nccc(-c2c[nH]c(=O)c(NC(=O)c3ccc(N4CCN(CCCOC)CC4)cc3)c2)n1 [II-79]
< 100 nM,< 1000 nM,CNc1nccc(-c2c[nH]c(=O)c(NC(=O)c3ccc(N4CCN(C(C)=O)CC4)cc3)c2)n1 [II-81]
100 to 1000 nM,> 1000 nM,CC(C)(C)c1ccc(C(=O)Nc2cc(C3=CC(=O)CCC3)c[nH]c2=O)cc1 [II-83]
–,> 1000 nM,CNc1cc(-c2c[nH]c(=O)c(NC(=O)c3ccc(N4CCCCC4)cc3)c2)ccn1 [II-115]
100 to 1000 nM,–,N#Cc1cncc(-c2c[nH]c(=O)c(NC(=O)c3ccc(N4CCC[C@H]4CN4CCCC4)cc3)c2)c1 [II-154]
< 100 nM,–,CNc1cncc(-c2c[nH]c(=O)c(NC(=O)c3ccc(N4CCN(C)CC4)cc3)c2)n1 [II-155]
< 100 nM,–,CNc1cncc(-c2c[nH]c(=O)c(NC(=O)c3ccc(N4CCC(CCO)CC4)cc3)c2)n1 [II-156]
< 100 nM,–,CNc1cccc(-c2c[nH]c(=O)c(NC(=O)c3ccc(OCC4CCNCC4)cc3)c2)n1 [II-157]
< 100 nM,–,CNc1cncc(-c2c[nH]c(=O)c(NC(=O)c3ccc(OCCN4CCNCC4)cc3)c2)n1 [II-158]
–,> 1000 nM,CNc1cncc(-c2c[nH]c(=O)c(NC(=O)c3ccc(N4CCCCC4)cc3)c2)c1 [II-159]

Ki [1],Ki [2],Compound
100 to 1000 nM,–,N#Cc1ccnc(-c2c[nH]c(=O)c(NC(=O)c3ccc(N4CCNCC4)cc3)c2)c1 [II-161]
< 100 nM,–,CNc1cncc(-c2c[nH]c(=O)c(NC(=O)c3ccc(NCCN4CCCC4)cc3)c2)n1 [II-162]
< 100 nM,–,CNc1cncc(-c2c[nH]c(=O)c(NC(=O)c3ccc(N(C)CCc4cnc[nH]4)cc3)c2)n1 [II-165]
< 100 nM,–,CNc1cncc(-c2c[nH]c(=O)c(NC(=O)c3ccc(N(C)CCCN(C)C)cc3)c2)n1 [II-167]
< 100 nM,–,CNc1cc(-c2c[nH]c(=O)c(NC(=O)c3ccc(N4CCNCC4)cc3)c2)ccn1 [II-169]
< 100 nM,–,CNc1cc(-c2c[nH]c(=O)c(NC(=O)c3ccc(OCC4CCNCC4)cc3)c2)ncn1 [II-170]
< 100 nM,–,CNc1cc(-c2c[nH]c(=O)c(NC(=O)c3ccc(N4CCC[C@H]4CN4CCCC4)cc3)c2)ccn1 [II-172]
100 to 1000 nM,–,O=C(Nc1cc(-c2cccc(NC(CO)CO)n2)c[nH]c1=O)c1ccc(N2CCCCC2)cc1 [II-174]
100 to 1000 nM,–,CCNc1cncc(-c2c[nH]c(=O)c(NC(=O)c3ccc(N4CCC[C@H]4CN4CCCC4)cc3)c2)n1 [II-175]
100 to 1000 nM,–,O=C(Nc1cc(-c2cncc(NC3CC3)n2)c[nH]c1=O)c1ccc(N2CCC[C@H]2CN2CCCC2)cc1 [II-176]
< 100 nM,–,CNc1cncc(-c2c[nH]c(=O)c(NC(=O)c3ccc(OCCCN4CCCCC4)cc3)c2)n1 [II-177]
< 100 nM,–,CNc1cncc(-c2c[nH]c(=O)c(NC(=O)c3ccc(OC4CCNCC4)cc3)c2)n1 [II-181]
< 100 nM,–,CNc1cncc(-c2c[nH]c(=O)c(NC(=O)c3ccc(OCCCN4CCOCC4)cc3)c2)n1 [II-182]
100 to 1000 nM,–,CCc1ccc(NC(=O)c2cc(-c3ccncc3)c[nH]c2=O)cc1 [III-7]
100 to 1000 nM,–,O=C(Nc1ccc(Br)cc1)c1cc(-c2ccncc2)c[nH]c1=O [III-8]
100 to 1000 nM,–,COc1ccc(NC(=O)c2cc(-c3ccncc3)c[nH]c2=O)cc1 [III-11]
100 to 1000 nM,–,COc1ccc(NC(=O)c2cc(-c3ccncc3)c[nH]c2=O)cc1OC [III-16]
< 100 nM,–,O=C(Nc1ccc(N2CCOCC2)cc1)c1cc(-c2ccncc2)c[nH]c1=O [III-42]
100 to 1000 nM,–,O=C(Nc1ccc(C2CCCCC2)cc1)c1cc(-c2ccncc2)c[nH]c1=O [III-43]
< 100 nM,–,O=C(Nc1ccc(N2CCCCC2)cc1)c1cc(-c2ccncc2)c[nH]c1=O [III-44]
100 to 1000 nM,–,CCOc1ccc(NC(=O)c2cc(-c3ccncc3)c[nH]c2=O)cc1 [III-45]
< 100 nM,–,CN1CCN(c2ccc(NC(=O)c3cc(-c4ccncc4)c[nH]c3=O)cc2)CC1 [III-46]
< 100 nM,–,CCN1CCN(c2ccc(NC(=O)c3cc(-c4ccncc4)c[nH]c3=O)cc2)CC1 [III-47]
< 100 nM,–,O=C(Nc1ccc(N2CCC(O)CC2)cc1)c1cc(-c2ccncc2)c[nH]c1=O [III-52]
< 100 nM,–,O=C(Nc1ccc(N2CCNCC2)cc1)c1cc(-c2ccncc2)c[nH]c1=O [III-54]
